Measured values published in ChEMBL document CHEMBL3045669, “Evaluation of crude toxin and metabolite produced by Helminthosporium gramineum Rabenh for the control of rice sheath blight in paddy fields” (2007).

Key:
Format in all cases: functional
Settings in all cases: read-out: GI
Rhizoctonia solani [1] = test: Growth inhibition of Rhizoctonia solani AG-1 IA at 25 ug/ml after 24 hr
Rhizoctonia solani [2] = test: Growth inhibition of Rhizoctonia solani AG-1 IA at 50 ug/ml after 24 hr
Rhizoctonia solani [3] = test: Growth inhibition of Rhizoctonia solani AG-1 IA at 200 ug/ml after 24 hr
Rhizoctonia solani [4] = test: Growth inhibition of Rhizoctonia solani AG-1 IA at 10 ug/ml after 24 hr
Rhizoctonia solani [5] = test: Growth inhibition of Rhizoctonia solani AG-1 IA at 100 ug/ml after 24 hr
Rhizoctonia solani [6] = test: Growth inhibition of Rhizoctonia solani AG-1 IA at 1 ug/ml after 24 hr

Row | SMILES | inhibition of growth at 25 µg/mL (Rhizoctonia solani [1]) [%] | inhibition of growth at 50 µg/mL (Rhizoctonia solani [2]) [%] | inhibition of growth at 200 µg/mL (Rhizoctonia solani [3]) [%] | inhibition of growth at 10 µg/mL (Rhizoctonia solani [4]) [%] | inhibition of growth at 100 µg/mL (Rhizoctonia solani [5]) [%] | inhibition of growth at 1 µg/mL (Rhizoctonia solani [6]) [%]
1 | OCC1=C[C@H](N[C@H]2C[C@H](CO)[C@@H](O[C@@H]3O[C@H](CO)[C@@H](O)[C@H](O)[C@H]3O)[C@H](O)[C@H]2O)[C@H](O)[C@@H](O)[C@@H]1O [VALIDAMYCIN] | 17 | 22.6 | 45.2 | 5.7 | 34 | 
2 | CC(C)=C[C@H]1C[C@H](C)[C@]2(CC[C@]3(C)C[C@H]4[C@H](C(=O)C[C@@]4(C)O)/C(C=O)=C\C[C@H]32)O1 [OPHIOBOLIN A] | 100 | 100 |  | 85.9 |  | 70.2
